Source: patent US5328823A, “Enzyme-based biosensors for detecting noble gases” (American Air Liquide, priority 1992, dated 1994)

Key:
Tyrosinase [1] = assay: Tyrosinase/L-tyrosine biosensing bag (Curlon Grade 861) placed in gas-packaged food packages, rate of colour change; assay type: biochemical, Mushroom
Description: The above mentioned oxido-reductase system (tyrosinase/L-tyrosine) is placed inside a 3 cc bag by heat-sealing of the polymeric film used in protocol described above (Curlon Grade 861, Curwood).
The 3 cc bag is placed into a series of packages containing food products under different gas mixtures, which include neon, argon, krypton, xenon, oxygen, nitrogen and carbon dioxide. The relative rate of changing color of the device, that is the development of a pink-brown color, is monitored over time.
A similar series is run, but after holes have been punctured in the packages to simulate leaks. The rate of changing color is then monitored. Thus we have made a leak detection system.
In the same manner, the exchange of gases through the film of the packages and the change in respiration of fresh horticultural commodities can also be monitored. […] Preparation of a standard curve permits detection of each type of gas mix relative to the other, and also permits detection of a change in oxygen level caused by vegetable respiration.

Tyrosinase [2] = assay: Gas biosensor diffusion cell, Tyrosinase/L-Tyrosine reaction monitored at 305 nm, Curlon Grade 861 film; assay type: biochemical, Mushroom; settings: gas in upper chamber of diffusion cell, 25° C.; for maximum change in enzymatic activity, Reference Air: compared to air diffusion through the film; for maximum change in enzymatic activity, Reference Nitrogen: compared to nitrogen
Description: Construction consists of coupling two 1-cm lightpath UV grade methacrylate covets with a ring of 100% silicone rubber (General Purpose Sealant, Dow Corning) applied on their outside rim. Before sealing with silicone, a 1-cm^2 square of a polymeric film of known permeabilities to the different gases is placed between the two cuvettes. Holes have been previously drilled in each covet (drill bit 7/64") to receive a septum (d=3 mm; h=8 mm; Supelco No. 3-3301M). 100% silicone rubber was applied around the septa to avoid possible leaks.
Tyrosinase/L-Tyrosine monitored at 305 nm
Enzyme: Tyrosinase (SIGMA No. T-7755) (Monophenol monooxygenase; Polyphenol oxidase; Catechol oxidase; Monophenol, dihydroxyphenylalanine: oxygen oxidoreductase; From Mushroom
Chamber 1 (upper) is flushed for 2 […] with 100% nitrogen (very low flow to prevent tearing of the polymeric film: line delivery pressure <5 psi) at ambient temperature (25° C.), using 22G11/2 needles (small gauge to reduce risks of leakage through holes in septa).
Chamber 2 (lower) is flushed in the same way as chamber 1.
Chamber 2 is then filled with 2.0 ml of N2 -saturated solution C, by means of a 3 cc syringe (previously purged with N2).
Before the spectrophotometric run, 20 cc of the appropriate gas (Air, N2, Ar, Kr, Xe) is passed through chamber 1 of each of the 3 diffusion cells simultaneously, by means of a 30 cc syringe.
Following immediately, the run starting time t0 is given by the simultaneous injections of 0.5 ml of N2 -saturated-solution B in chamber 2 of each diffusion cell. The 1 cc syringes used for sampling the 0.5 ml are previously purged with N2.
A selected example is given below for one of the enzymatic system/polymeric film tandems assayed. Given as well is the maximum change in enzymatic activity noted compared to the reaction resulting from air diffusion through the film, or compared to nitrogen. A sample graphic data output file is appended.
Polymeric film insert in diffusion cells: Curlon Grade 861 (CURWOOD).
Biochemical reaction (monitored at 305 nm): Tyrosinase/L-Tyrosine at 25° C. and optimal reaction conditions, gas in upper chamber of the diffusion cell being: […]

β-D-Glucosidase = assay: β-D-Glucosidase/p-Nitrophenyl-β-D-Glucopyranoside biosensing bag (PE 2 mil) in gas-packaged produce, rate of yellow colour change; assay type: biochemical, Almonds; settings: packaged vegetables, compared with nitrogen packaged produce; acceleration rather than inhibition
Description: The above mentioned hydrolase system (β-D-Glucosidase/p-Nitrophenyl-β-D-Glucopyranoside) is placed inside a 3 cc bag by heat-sealing of the polymeric film used in protocol described above (PE 2 mil).
The protocol followed is the same as described in the third detailed example of the invention, except for the fact that the colorigenic reaction observed is yellow, and is an acceleration rather than an inhibition. Thus, Kr packaged vegetables will produce a yellow color change in the device faster than will nitrogen packaged produce.

particulate sialidase = settings: highly impure enzymes; the patent calls these results questionable; cited from earlier work
[3] = per atmosphere of added nitrous oxide; independent of oxygen partial pressure; cited from earlier work

Compound | rate of changing color of the biosensing device (pink-brown) (Tyrosinase [1]; packaged vegetables, compared with the package under 100% N2) | maximum change in enzymatic activity, Reference Air (Tyrosinase [2]) | maximum change in enzymatic activity, Reference Nitrogen (Tyrosinase [2]) | rate of changing color of the biosensing device, case of a leak (Tyrosinase [1]; package under 100% gas, compared with 100% N2) | rate of yellow color change in the device (β-D-Glucosidase) | effect on activity of particulate sialidase (particulate sialidase) | inhibition per atmosphere of added gas [3]
[Ar] [Ar, argon] | turns color more slowly | -25% | -21% | – | – | – | –
[Kr] [Kr, krypton] | – | -35% | -32% | turns color more slowly | faster | – | –
[Xe] [Xe, xenon] | – | -30% | -26% | – | – | enhance the activity | –
FC(F)(F)C(Cl)Br (stereo not shown) [halothane] | – | – | – | – | – | enhance the activity | –
[N-]=[N+]=O [nitrous oxide] | – | – | – | – | – | enhance the activity | 1.9%
